Test results taken from ChEMBL document CHEMBL3044573, “Neurological activities of lapachol and its furano derivatives from Kigelia africana” (Med Chem Res, 2013).
Active and inactive are the calls of the source. The rule behind the calls is not given here.

Columns and labels:
Mus musculus [1] = experiment: Anxiolytic activity in albino Mus musculus (mouse) assessed as increase in time spent on open arm at 50 mg/kg, ip administered 30 min prior to testing by elevated-plus maze test relative to control; format: functional, organism-based; set-up: dose 50 mg/kg
Mus musculus [2] = experiment: Antidepressant activity in albino Mus musculus (mouse) assessed as reduction in immobility time at 50 mg/kg, ip administered 30 min prior to testing by forced-swim test relative to control; format: functional, organism-based; set-up: dose 50 mg/kg
Mus musculus [3] = experiment: Anxiolytic activity in albino Mus musculus (mouse) assessed as increase in number of open arm enteries at 50 mg/kg, ip administered 30 min prior to testing by elevated-plus maze test relative to control; format: functional, organism-based; set-up: dose 50 mg/kg
Mus musculus [4] = experiment: Anxiolytic activity in albino Mus musculus (mouse) assessed as increase in time spent on open arm at 100 mg/kg, ip administered 30 min prior to testing by elevated-plus maze test relative to control; format: functional, organism-based; set-up: dose 100 mg/kg
Mus musculus [5] = experiment: Anxiolytic activity in albino Mus musculus (mouse) assessed as increase in number of open arm enteries at 100 mg/kg, ip administered 30 min prior to testing by elevated-plus maze test relative to control; format: functional, organism-based; set-up: dose 100 mg/kg
Mus musculus [6] = experiment: Stimulation of central nervous system in albino Mus musculus (mouse) assessed as increase in number of lines crossed at 50 mg/kg, ip administered 30 min prior to testing by open-feild test relative to control; format: ADME, organism-based; set-up: dose 50 mg/kg, route intraperitoneal; conditions: in vivo, 0.5 h
Mus musculus [7] = experiment: Antidepressant activity in albino Mus musculus (mouse) assessed as reduction in immobility time at 100 mg/kg, ip administered 30 min prior to testing by forced-swim test relative to control; format: functional, organism-based; set-up: dose 100 mg/kg
Mus musculus [8] = experiment: Stimulation of central nervous system in albino Mus musculus (mouse) assessed as increase in rearing behaviour at 50 mg/kg, ip administered 30 min prior to testing by open-feild test relative to control; format: ADME, organism-based; set-up: dose 50 mg/kg, route intraperitoneal; conditions: in vivo, 0.5 h
Mus musculus [9] = experiment: Stimulation of central nervous system in albino Mus musculus (mouse) assessed as increase in rearing behaviour at 100 mg/kg, ip administered 30 min prior to testing by open-feild test relative to control; format: ADME, organism-based; set-up: dose 100 mg/kg, route intraperitoneal; conditions: in vivo, 0.5 h
Mus musculus [10] = experiment: Anxiolytic activity in albino Mus musculus (mouse) assessed as decrease in rearing behaviour at 50 mg/kg, ip administered 30 min prior to testing by open-field test relative to control; format: functional, organism-based; set-up: dose 50 mg/kg
Mus musculus [11] = experiment: Stimulation of central nervous system in albino Mus musculus (mouse) assessed as increase in number of lines crossed at 100 mg/kg, ip administered 30 min prior to testing by open-feild test relative to control; format: ADME, organism-based; set-up: dose 100 mg/kg, route intraperitoneal; conditions: in vivo, 0.5 h
Mus musculus [12] = experiment: Anxiolytic activity in albino Mus musculus (mouse) assessed as decrease in rearing behaviour at 100 mg/kg, ip administered 30 min prior to testing by open-field test relative to control; format: functional, organism-based; set-up: dose 100 mg/kg
Mus musculus [13] = experiment: Antidepressant activity in albino Mus musculus (mouse) assessed as reduction in immobility time at 15 mg/kg, ip administered 30 min prior to testing by forced-swim test relative to control; format: functional, organism-based; set-up: dose 15 mg/kg

SMILES | Activity (Mus musculus [1]) | Activity (Mus musculus [2]) | Activity (Mus musculus [3]) | Activity (Mus musculus [4]) | Activity (Mus musculus [5]) | Activity (Mus musculus [6]) | Activity (Mus musculus [7]) | Activity (Mus musculus [8]) | Activity (Mus musculus [9]) | Activity (Mus musculus [10]) | Activity (Mus musculus [11]) | Activity (Mus musculus [12]) | Activity (Mus musculus [13])
CC[C@H](CC[C@@H](C)[C@H]1CC[C@H]2[C@@H]3CC=C4C[C@@H](O)CC[C@]4(C)[C@H]3CC[C@]12C)C(C)C [BETA-SITOSTEROL] | inactive | inactive | Active | inactive | Active | Toxic | inactive | Toxic | – | – | – | – | –
CC(O)c1cc2c(o1)C(=O)c1ccccc1C2=O (stereo unspecified) | – | Active | – | Active | Active | – | – | – | Toxic | Active | Toxic | – | –
CC(=O)c1cc2c(o1)C(=O)c1ccccc1C2=O [NAPABUCASIN] | – | Active | – | – | – | Toxic | Active | – | – | Active | – | Active | –
CC1(C)C=CC2=C(O1)C(=O)c1ccccc1C2=O | inactive | – | inactive | inactive | inactive | – | – | – | – | – | – | – | –
CC(C)=CCC1=C(O)C(=O)c2ccccc2C1=O [LAPACHOL] | inactive | Active | Active | inactive | Active | – | – | – | Toxic | – | Toxic | – | –
CN(C)CCCN1c2ccccc2CCc2ccccc21 | – | – | – | – | – | – | – | – | – | – | – | – | Active
